The target in series [1] is T1, recombinant 11βHSD1 protein (Homo sapiens, UniProt P28845).
T1 construct: made in house; host or cells: Saccharomyces cerevisiae
The series is described as follows: SPA (Scintillation Proximity Assay) test of in vitro inhibition of the enzyme 11βHSD1, 384-well format. The class given is biochemical. To be noted: 3H-cortisone and NADPH, SPA beads, cortisol formed; read-out: IC50 (concentration which inhibits 50% of the activity of 11βHSD1). The text has this: The compounds according to the invention formed the subject of pharmacological assays which make it possible to determine their inhibiting effect on the enzyme 11βHSD1, which is involved in the metabolism of lipids and the metabolism of glucose.
These assays consisted in measuring the in vitro inhibiting activity of the compounds of the invention on the enzyme 11βHSD1 by virtue of an SPA (Scintillation Proximity Assay) test in 384-well format. The recombinant 11βHSD1 protein was produced in the yeast S. cerevisiae. The reaction was carried out by incubating the enzyme in the presence of ^3H-cortisone and of NADPH, in the absence or in the presence of an increasing concentration of inhibitor. SPA beads coupled to an antimouse antibody, which are preincubated with an anticortisol antibody, made it possible to measure the amount of cortisol formed during the reaction.
In general terms: In a scintillation proximity assay essentially only radioactivity close to the scintillant gives light.

Series [2] deals with T2, 11βHSD1 in the eyes (Homo sapiens, UniProt P28845).
T2 construct: The 11βHSD1 is located in the nonpigmented epithelial calls; host or cells: healthy volunteers (in vivo, ocular tissue)
T2 sequence (P28845 whole entry): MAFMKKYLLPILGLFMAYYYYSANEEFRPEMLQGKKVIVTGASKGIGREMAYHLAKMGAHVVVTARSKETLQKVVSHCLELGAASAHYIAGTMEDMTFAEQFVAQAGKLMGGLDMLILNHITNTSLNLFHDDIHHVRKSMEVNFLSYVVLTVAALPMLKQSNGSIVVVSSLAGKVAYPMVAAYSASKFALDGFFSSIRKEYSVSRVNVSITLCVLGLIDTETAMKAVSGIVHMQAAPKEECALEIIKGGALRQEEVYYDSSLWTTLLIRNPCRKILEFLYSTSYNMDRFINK
To be noted: healthy volunteers, treatment for seven days; cited from earlier work.

SMILES strings stand for the structures.

T1 sequence (P28845 whole entry, species assumed): as the sequence (P28845 whole entry) above

With `CC(C)(C)N1CCN(c2ccc(N3CCN(C(=O)NC4C5CC6CC4CC(C(N)=O)(C6)C5)c4ccccc43)cc2)CC1` (centres unmarked) [compound 96], the melting point turned out to be 228 °C. The IC50 in series [1] came to 19 nM.

`CC(C)(CO)N1CCN(c2ccc(N3CCN(C(=O)N[C@H]4C5CC6CC4C[C@@](C(N)=O)(C6)C5)c4ccccc43)cc2)CC1` [compound 152, Trans-4-{4-[4-(2-Hydroxy-1,1-dimethylethyl)Piperazin-1-yl]phenyl}-3,4-dihydro-2H-quinoxaline-1-carboxylic Acid (5-carbamoyladamantan-2-yl)Amide] gave a melting point of 194 to 200 °C.

Consider `CS(=O)(=O)N1CCC2(CCN(c3ccc(N4CCN(C(=O)NC5C6CC7CC5CC(O)(C7)C6)c5ccccc54)cc3)C2)C1` (centres unmarked) [compound 132], for which the melting point turned out to be 127 °C. For the same compound, the IC50 in series [1] was 187 nM.

The compound `O=C(NC1C2CC3CC1CC(O)(C3)C2)N1CCN(c2ccc(Oc3nccc(C(F)(F)F)n3)cc2)c2ccccc21` (centres unmarked) [compound 14] had a melting point of 197 °C. Also, the IC50 in series [1] worked out at 28 nM.

In turn, `O=C(N[C@H]1C2CC3CC1C[C@@](O)(C3)C2)N1CCN(c2ccc(N3CCC(O)CC3)cc2)c2ccccc21` [Compound No. 51, Trans-4-[4-(4-Hydroxypiperidin-1-yl)Phenyl]-3,4-dihydro-2H-quinoxaline-1-carboxylic Acid (5-hydroxyadamantan-2-yl)Amide] showed a melting point of 131 °C.

With `CCS(=O)(=O)N1CCN(c2ccc(N3CCN(C(=O)N[C@H]4C5CC6CC4C[C@@](C(N)=O)(C6)C5)c4ccccc43)nc2)CC1` [Compound No. 149, Trans-4-[5-(4-(Ethanesulphonyl)Piperazin-1-yl)Pyridin-2-yl]-3,4-dihydro-2H-quinoxaline-1-carboxylic Acid (5-carbamoyladamantan-2-yl)Amide], the melting point was found to be 175 °C.

Compound `CC(C)N1CCN(C(=O)c2ccc(-c3ccc(N4CCN(C(=O)NC5C6CC7CC5CC(O)(C7)C6)c5ccccc54)cc3)nc2)CC1` (centres unmarked) [compound 27] returned a melting point of 127 °C. Further, in series [1], the IC50 amounted to 17 nM.

With `CS(=O)(=O)CCN1CCN(c2ccc(N3CCN(C(=O)N[C@H]4C5CC6CC4C[C@@](C(N)=O)(C6)C5)c4ccccc43)nc2)CC1` [compound 178, Trans-4-{5-[4-(2-(Methanesulphonyl)Ethyl)Piperazin-1-yl]-pyridin-2-yl}-3,4-dihydro-2H-quinoxaline-1-carboxylic Acid (5-carbamoyladamantan-2-yl)Amide], the melting point was found to be 204 °C.

Take `O=C(NC1C2CC3CC1CC(O)(C3)C2)N1CCN(c2ccc(N3CCC(F)(F)CC3)cc2)c2ccccc21` (centres unmarked) [compound 30]: the melting point came to 95 °C. Also, the IC50 in series [1] turned out to be 94 nM.

Regarding `O=C(NC1C2CC3CC(C2)CC1C3)N1CCN(c2ccc(OCc3ncccn3)cc2)c2ccccc21` (centres unmarked) [Compound No. 3, 4-[4-(Pyrimidin-2-ylmethoxy)Phenyl]-3,4-dihydro-2H-quinoxaline-1-carboxylic Acid adamantan-2-ylamide], the melting point lay in the range of 123 to 125 °C. The IC50 in series [1] is 405 nM.

Regarding `CS(=O)(=O)N1CCC(O)(c2ccc(N3CCN(C(=O)N[C@H]4C5CC6CC4C[C@@](O)(C6)C5)c4ccccc43)cc2)CC1` [Compound No. 16, Trans-4-[4-(4-Hydroxy-1-(methanesulphonyl)Piperidin-4-yl)Phenyl]-3,4-dihydro-2H-quinoxaline-1-carboxylic Acid (5-hydroxy-adamantan-2-yl)Amide], the melting point stood at 160 °C. The IC50 in series [1] is 28 nM.

On to `CS(=O)(=O)N1CC=C(c2ccc(N3CCN(C(=O)NC4C5CC6CC4CC(O)(C6)C5)c4ccccc43)cc2)CC1` (centres unmarked) [compound 15], for which the melting point turned out to be 103 °C. In series [1], the IC50 was found to be 49 nM.

In turn, `O=C(c1ccc(-c2csc(N3CCN(C(=O)NC4C5CC6CC(C5)CC4C6)c4ccccc43)n2)cc1)N1CCOCC1` (centres unmarked) [compound 6] showed a melting point of 163 to 169 °C. For the same compound, the IC50 in series [1] amounted to 624 nM.

`CC(C)Oc1ccc(-c2ccc(N3CCN(C(=O)NC4C5CC6CC4CC(C(N)=O)(C6)C5)c4ccccc43)cc2)nc1` (centres unmarked) [compound 85]: the melting point lay in the range of 193 to 194 °C. Also, the IC50 in series [1] was determined as 7 nM.

In the case of `N#C[C@]12CC3CC(C1)[C@H](NC(=O)N1CCN(c4ccc(N5CCN(S(=O)(=O)C6CC6)CC5)cn4)c4ccccc41)C(C3)C2` [compound 165, Trans-4-[5-(4-(Cyclopropanesulphonyl)Piperazin-1-yl)Pyridin-2-yl]-3,4-dihydro-2H-quinoxaline-1-carboxylic Acid (5-cyanoadamantan-2-yl)Amide], the melting point turned out to be 188 °C.

On to `CC(C)CN1CCN(c2ccc(N3CCN(C(=O)N[C@H]4C5CC6CC4C[C@@](C(N)=O)(C6)C5)c4ccccc43)nc2)CC1` [compound 158, Trans-4-[5-(4-Isobutylpiperazin-1-yl)Pyridin-2-yl]-3,4-dihydro-2H-quinoxaline-1-carboxylic Acid (5-carbamoyladamantan-2-yl)Amide], for which the melting point worked out at 209 °C.

`COCCOCCS(=O)(=O)N1CCN(c2ccc(N3CCN(C(=O)NC4C5CC6CC4CC(C(N)=O)(C6)C5)c4ccccc43)cc2)CC1` (centres unmarked) [compound 125]: the IC50 in series [1] was 7 nM.

`CS(=O)(=O)N1CCN(c2ccc(N3CCN(C(=O)N[C@H]4C5CC6CC4C[C@@](F)(C6)C5)c4ccccc43)cc2)CC1` [Compound No. 40, Trans-4-[4-(4-(Methanesulphonyl)Piperazin-1-yl)Phenyl]-3,4-dihydro-2H-quinoxaline-1-carboxylic Acid (5-fluoroadamantan-2-yl)Amide] gave a melting point of 165 to 200 °C.

`CCS(=O)(=O)N1CCN(c2ccc(N3CCN(C(=O)N[C@H]4C5CC6CC4C[C@@](O)(C6)C5)c4ccccc43)cc2)CC1` [compound 34, trans-4-[4-(4-(Ethanesulphonyl)Piperazin-1-yl)Phenyl]-3,4-dihydro-2H-quinoxaline-1-carboxylic Acid (5-hydroxyadamantan-2-yl)Amide] displayed a melting point of 138 to 160 °C.

Compound `CC(=O)N[C@]12CC3CC(C1)[C@H](NC(=O)N1CCN(c4ccc(N5CCN(S(C)(=O)=O)CC5)cc4)c4ccccc41)C(C3)C2` [Compound No. 137, Trans-4-[4-(4-(Methanesulphonyl)Piperazin-1-yl)Phenyl]-3,4-dihydro-2H-quinoxaline-1-carboxylic Acid (5-acetylaminoadamantan-2-yl)Amide] had a melting point of 250 °C. In addition, the IC50 in series [1] turned out to be 130 nM.

As to `CC(C)(C)N1CCN(c2ccc(N3CCN(C(=O)NC4C5CC6CC4CC(C(N)=O)(C6)C5)c4ccccc43)nc2)CC1` (centres unmarked) [compound 128], the IC50 in series [1] came out at 4 nM.

`NC(=O)C12CC3CC(C1)C(NC(=O)N1CCN(c4ccc(N5CCN(S(=O)(=O)C6CCNCC6)CC5)cc4)c4ccccc41)C(C3)C2` (centres unmarked) [compound 95] showed a melting point of 230 °C. In addition, in series [1], the IC50 was 8 nM.

For `CC1(C)[C@@H](OC(=O)CCC(=O)O)CC[C@]2(C)[C@H]3C(=O)C=C4[C@@H]5C[C@@](C)(C(=O)O)CC[C@]5(C)CC[C@@]4(C)[C@]3(C)CC[C@@H]12` [carbenoxolone], the “reduction of the intraocular pressure (IOP)” value in series [2] was 18%.

For `CC(C)(C)N1CCC(c2ccc(N3CCN(C(=O)N[C@H]4C5CC6CC4C[C@@](C(N)=O)(C6)C5)c4ccccc43)nc2)CC1` [compound 170, Trans-4-(1′-(tert-Butyl)-1′,2′,3′,4′,5′,6′-hexahydro-[3,4′]bipyridinyl-6-yl)-3,4-dihydro-2H-quinoxaline-1-carboxylic Acid (5-carbamoyladamantan-2-yl)Amide], the melting point amounted to 228 °C.

In turn, `CS(=O)(=O)N1CCN(c2ccc(N3CCN(C(=O)N[C@H]4C5CC6CC4C[C@@](CO)(C6)C5)c4ccccc43)cc2)CC1` [Compound No. 21, Trans-4-[4-(4-(Methanesulphonyl)Piperazin-1-yl)Phenyl]-3,4-dihydro-2H-quinoxaline-1-carboxylic Acid (5-(hydroxymethyl)Adamantan-2-yl)Amide] returned a melting point of 160 °C.

Compound `O=C(NC1C2CC3CC1CC(O)(C3)C2)N1CCN(c2ccc(N3CCN(C4CC4)CC3)cn2)c2ccccc21` (centres unmarked) [compound 118] showed a melting point of 161 °C. Besides, the IC50 in series [1] came out at 8 nM.

Consider `O=C(NC1C2CC3CC1CC(O)(C3)C2)N1CCN(c2ccc(N3CCN(S(=O)(=O)C4CCC4)CC3)cn2)c2ccccc21` (centres unmarked) [compound 119], for which the melting point came out at 188 °C. In addition, the IC50 in series [1] turned out to be 7 nM.

The term melting point denotes the temperature of the solid-liquid transition.

Source of the values: patent US8211892B2, “Tetrahydroquinoxaline urea derivatives” (Sanofi-Aventis, priority 2008, dated 2012).
